# Assay results as given in patent publication US20140303229A1, “NOVEL SKIN MOISTURIZING COMPOSITIONS” (priority 2007, published 2014).
# Test system: skin
# Experiment: 14-day cumulative irritation potential study (predictive occlusive patch test)
# Text: Occlusive patches with 100 micro liters of test product were applied to the skin daily for 14 days. Patches with sodium lauryl sulfate, 1.0% was used as a positive control while white petrolatum was used as a negative control.
Molecule,Category (irritation classification of Berger and Bowman) (in vivo),Classification (irritation classification according to Berger and Bowman) (in vivo),"Classification (irritation classification according to Berger and Bowman) (based on standardized cumulative irritation scores, 14 days, listed as Sodium lauryl sulfate 1.0%, sulfate)","Classification (irritation classification according to Berger and Bowman) (based on standardized cumulative irritation scores, 14 days, sulfate)","Standardized Cumulative Score (cumulative irritation score) (occlusive patches, 100 micro liters, daily for 14 days)"
White Petrolatum,I,Mild material -,–,–,–
"CCCCCCCCCCCCOS(=O)(=O)[O-].[Na+] [Sodium lauryl sulfate, 1.0%, Sodium lauryl sulfate]",–,–,possibly mild,Possibly mild in,595.4
